The values below are quoted from earlier work in US20250000937A1 (ZHAOKE (HONG KONG) OPHTHALMOLOGY PHARMACEUTICAL LTD., priority 2021, published 2025).

The structures appear in SMILES notation.

Series [1] concerns DED. The following applies: in vivo.
The subject of series [2] is DED. Particulars: OPUS-1, mean baseline ICSS of 1.84.
The conditions of series [3]: in vivo.

Turning to `CS(=O)(=O)c1cccc(C[C@H](NC(=O)c2c(Cl)cc3c(c2Cl)CCN(C(=O)c2ccc4ccoc4c2)C3)C(=O)O)c1` [Lifitegrast], the “Time to show efficacy against DED signs and symptoms” value in the series with DED [1] is recorded as 3 months. In addition, in the series on DED [2], the “Proportion of patients with at least a 1-point improvement in ICSS from baseline to day 84” value is listed as 22.2%. The “Patients with instillation site pain” value in series [3] is 22%.
